34 molecules from patent EP4644383A1 (Jiangsu Yahong Meditech Co., Ltd., priority 2022, dated 2024) can be followed below.

Like-named read-outs stand apart in the source and are kept apart here.

One test addresses T1, FGFR3 (Homo sapiens, UniProt P22607).
T1 construct: FGFR3's cytoplasmic domain [436-806 (terminal) amino acids]; purchased Carna 08-135
As to the kind of experiment: FGFR3 kinase activity inhibition assay (LanthaScreen TR-FRET). The format is biochemical. The settings on record: for Selectivity (X) FGFR1/FGFR3: ratio of IC50 FGFR1/FGFR3, selectivity towards FGFR3. As for the experimental part: PV3552) and 10 mM EDTA were added to quench the kinase reaction, and incubated at 22°C for 60 minutes. • ⑤ The reaction was measured using a PerkinElmer EnVision multimode plate reader through TR-FRET dual wavelength detection. • 1. The RFU values were copied from the Envision program. • 2. The ratio of RFU 520nm/RFU 495nm was calculated. • 3. The value of the ratio was converted to a percentage inhibition value. % Inhibition = (max-data)/(max-min) × 100 [formula] "Min" represents the ratio of the control without enzyme, "max" represents the ratio of the DMSO control, and "data" represents the ratio of the compounds in wells with different concentrations. […] "Top" refers to the maximum response, "Bottom" refers to the minimum response, and "HillSlope" refers to the slope of the curve. According to the same method as that in the FGFR1 kinase activity inhibition assay, the inhibitory activities against FGFR2, FGFR3 and FGFR4 were tested using FGFR2's cytoplasmic domain [399-821 (terminal) amino acids] (Carna: 08-134), FGFR3's cytoplasmic domain [436-806 (terminal) amino acids] (Carna: 08-135) and FGFR4's cytoplasmic domain [460-802 (terminal) amino acids] (Carna: 08-136), respectively. […]

For another test, the target named is T2, FGFR1 (Homo sapiens, UniProt P11362).
T2 construct: cytoplasmic domain [398-822 (terminal) amino acids]; purchased Carna 08-133
As to the kind of experiment: FGFR1 kinase activity inhibition assay (LanthaScreen TR-FRET). Type of test: biochemical. As for the experimental part:
PV3552) and 10 mM EDTA were added to quench the kinase reaction, and incubated at 22°C for 60 minutes. • ⑤ The reaction was measured using a PerkinElmer EnVision multimode plate reader through TR-FRET dual wavelength detection. • 1. The RFU values were copied from the Envision program. • 2. The ratio of RFU 520nm/RFU 495nm was calculated. • 3. The value of the ratio was converted to a percentage inhibition value. % Inhibition = (max-data)/(max-min) × 100 [formula] "Min" represents the ratio of the control without enzyme, "max" represents the ratio of the DMSO control, and "data" represents the ratio of the compounds in wells with different concentrations. […] "Top" refers to the maximum response, "Bottom" refers to the minimum response, and "HillSlope" refers to the slope of the curve.

Where [1] appears, read: FGFR3 kinase, TR-FRET, read-out: IC50 (nM) FGFR3.
[2] abbreviates: FGFR1 kinase, TR-FRET, read-out: IC50 (nM) FGFR1.

T2 sequence (P11362 398-822): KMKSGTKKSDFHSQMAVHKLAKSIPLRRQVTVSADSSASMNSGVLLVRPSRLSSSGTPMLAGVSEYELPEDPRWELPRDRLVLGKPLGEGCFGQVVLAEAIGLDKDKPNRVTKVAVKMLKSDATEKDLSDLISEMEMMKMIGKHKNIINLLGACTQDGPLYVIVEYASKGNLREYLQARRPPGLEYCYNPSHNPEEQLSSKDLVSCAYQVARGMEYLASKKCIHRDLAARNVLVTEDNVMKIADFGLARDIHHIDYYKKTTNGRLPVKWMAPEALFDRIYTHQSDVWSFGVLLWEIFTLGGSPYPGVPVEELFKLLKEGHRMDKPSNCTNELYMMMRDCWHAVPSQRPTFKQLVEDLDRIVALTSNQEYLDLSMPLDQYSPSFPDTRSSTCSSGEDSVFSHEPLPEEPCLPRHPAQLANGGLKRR
T1 sequence (P22607 436-806): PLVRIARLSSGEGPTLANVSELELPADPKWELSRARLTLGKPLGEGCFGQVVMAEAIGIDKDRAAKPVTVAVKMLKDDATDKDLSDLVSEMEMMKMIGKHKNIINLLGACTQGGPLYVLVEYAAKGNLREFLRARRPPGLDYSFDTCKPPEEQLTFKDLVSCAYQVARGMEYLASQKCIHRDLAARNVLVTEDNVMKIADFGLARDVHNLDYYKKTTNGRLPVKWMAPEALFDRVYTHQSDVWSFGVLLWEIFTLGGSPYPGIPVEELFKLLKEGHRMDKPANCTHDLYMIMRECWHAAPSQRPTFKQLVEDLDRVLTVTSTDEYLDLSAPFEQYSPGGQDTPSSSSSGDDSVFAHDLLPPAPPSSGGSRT

“7-methyl-5-(1-((3-(1-methyl-1H-pyrazol-4-yl)-1H-pyrazino[4,3-b]pyridin-5-yl)oxy)ethyl)pyridi no[3,4-b]pyrazine [Example 204]”: the values for the IC50 at FGFR3 (setting [1]) and at FGFR1 (setting [2]) were less than 1 nM and 1 to 10 nM, respectively. In addition, the “Selectivity (X) FGFR1/FGFR3” value at FGFR3 is “A (A represents 1 ≤ multiple X<20)”. `C[C@@H](Oc1cc(C#N)c2[nH]nc(-c3cnn(C)c3)c2c1)c1c(Cl)cncc1Cl` [Example 8]: the IC50 at FGFR3 (setting [1]) and at FGFR1 (setting [2]) was greater than 100 nM in each case. Moreover, on FGFR3, the “Selectivity (X) FGFR1/FGFR3” value is given as “A (A represents 1 ≤ multiple X<20)”. Consider `CCCn1cc(-c2n[nH]c3c(F)cc(O[C@H](C)c4c(Cl)cncc4Cl)cc23)cn1` [Example 10], for which the half-maximal inhibitory concentration (IC50) lay within 1 to 10 nM at FGFR3 and 10 to 100 nM against FGFR1. The “Selectivity (X) FGFR1/FGFR3” value on FGFR3 is listed as “A (A represents 1 ≤ multiple X<20)”. On to `CC(=O)N1CCC(n2cc(-c3n[nH]c4c(F)cc(O[C@H](C)c5c(Cl)cncc5Cl)cc34)cn2)CC1` [Example 13], for which the IC50 was in the range of 1 to 10 nM on FGFR3 (setting [1]) and 10 to 100 nM at FGFR1 (setting [2]). Moreover, the “Selectivity (X) FGFR1/FGFR3” value on FGFR3 is “A (A represents 1 ≤ multiple X<20)”.

On to `CC(Oc1ccc2[nH]nc(-c3cnn(C)c3)c2c1)c1ccnc2ncccc12` (stereo not drawn) [Example 93, 4-(1-((3-(1-methyl-1H-pyrazol-4-yl)-1H-indazol-5-yl)oxy)ethyl)-1,8-naphthyridine], for which the IC50 on FGFR3 (setting [1]) lay in the range of 10 to 100 nM.

Consider `CC(Oc1ccc2[nH]nc(-c3cnn(C)c3)c2c1)c1cccc2c1OCCO2` (stereo not drawn) [Example 97, 5-(1-(2,3-dihydrobenzo[b][1,4]dioxan-5-yl)ethoxy)-3-(1-methyl-1H-pyrazol-4-yl)-1H-indazole], for which, on FGFR3 (setting [1]), the IC50 was greater than 100 nM. Turning to `CC(Oc1ccc2[nH]nc(-c3cnn(C)c3)c2c1)c1c(F)ccc2ncccc12` (stereo not drawn) [Example 102, 6-fluoro-5-(1-((3-(1-methyl-1H-pyrazol-4-yl)-1H-indazol-5-yl)oxy)ethyl)qu inoline], the IC50 at FGFR3 (setting [1]) was 1 to 10 nM.

For `CC(Oc1ccc2[nH]nc(-c3cnn(C)c3)c2c1)c1cccc2ncn(C)c12` (stereo not drawn) [Example 103, 5-(1-(1-methyl-1H-benzo[d]imidazol-7-yl)ethoxy)-3-(1-methyl-1-H-pyrazol-4-yl)-1H-indazole], the IC50 on FGFR3 (setting [1]) was 1 to 10 nM. Same read-out and setting: to `CC(Oc1ccc2[nH]nc(-c3cnn(C)c3)c2c1)c1cccc2cnccc12` (stereo not drawn) [Example 104, 5-(1-((3-(1-methyl-1H-pyrazol-4-yl)-1H-indazol-5-yl)oxy)ethyl)isoq uinoline] belongs 1 to 10 nM. On the same count and under the same terms, the figure for `CC(Oc1ccc2[nH]nc(-c3cnn(C)c3)c2c1)c1cccc2cccnc12` (stereo not drawn) [Example 105, 8-(1-((3-(1-methyl-1H-pyrazol-4-yl)-1H-indazol-5-yl)oxy)ethyl)quin oline] is 10 to 100 nM; for `CC(Oc1ccc2[nH]nc(-c3cnn(C)c3)c2c1)c1cccc2occc12` (stereo not drawn) [Example 106, 5-(1-(benzofuran-4-yl)ethoxy)-3-(1-methyl-1H-pyrazol-4-yl)-1H-indazole] it is 10 to 100 nM; for `CC(Oc1ccc2[nH]nc(-c3cnn(C)c3)c2c1)c1cncc2ncccc12` (stereo not drawn) [Example 108, 5-(1-((3-(1-methyl-1H-pyrazol-4-yl)-1H-indazol-5-yl)oxy)ethyl)-1,7-naphthyridine] it is greater than 100 nM. Consider `CC(Oc1ccc2[nH]nc(-c3cnn(C)c3)c2c1)c1cccc2scnc12` (stereo not drawn) [Example 109], for which the IC50 at FGFR3 (setting [1]) was in the range of 10 to 100 nM.

In the case of `Cc1ccc2ncccc2c1C(CO)Oc1ccc2[nH]nc(-c3cnn(C)c3)c2c1` (stereo not drawn) [Example 114, 2-((3-(1-methyl-1H-pyrazol-4-yl)-1H-indazol-5-yl)oxy)-2-(6-methylquinolin-5-yl)ethan-1-ol], the IC50 at FGFR3 (setting [1]) was greater than 100 nM. Same read-out and setting: to `Cc1ccc2ncccc2c1C(C)Sc1ccc2[nH]nc(-c3cnn(C)c3)c2c1` (stereo not drawn) [Example 115, 6-methyl-5-(1-((3-(1-methyl-1H-pyrazol-4-yl)-1H-indazol-5-yl)thio)ethyl)quinoline] belongs greater than 100 nM. In turn, `Cc1ccc2ncccc2c1C(C)Oc1cnc2[nH]nc(-c3cnn(C)c3)c2c1` (stereo not drawn) [Example 117, 6-methyl-5-(1-((3-(1-methyl-1H-pyrazol-4-yl)-1H-pyrazino[3,4-b]pyridin-5-yl)oxy)ethyl)quinoline] showed an IC50 on FGFR3 of 10 to 100 nM. As to `Cc1ccc2ncccc2c1C(=O)Oc1ccc2[nH]nc(-c3cnn(C)c3)c2c1` [Example 118], at FGFR3 (setting [1]), the IC50 lay in the range of 10 to 100 nM.

For the molecule `Cc1ccc2ncccc2c1C(Oc1ccc2[nH]nc(-c3cnn(C)c3)c2c1)C(F)(F)F` (stereo not drawn) [Example 121, 6-methyl-5-(2,2,2-trifluoro-1-((3-(1-methyl-1H-pyrazol-4-yl)-1H-indazol-5-yl)oxy)ethyl)quinoline], the IC50 on FGFR3 (setting [1]) is greater than 100 nM. Same read-out and setting: to `Cc1ccc(C(C)Oc2ccc3[nH]nc(-c4cnn(C)c4)c3c2)c2cccnc12` (stereo not drawn) [Example 123, 8-methyl-5-(1-((3-(1-methyl-1H-pyrazol-4-yl)-1H-indazol-5-yl)oxy)ethyl)qu inoline] belongs greater than 100 nM.

On to `CC(Oc1ccc2[nH]nc(-c3cnn(C)c3)c2c1)c1csc2ncccc12` (stereo not drawn) [Example 125, 3-(1-((3-(1-methyl-1H-pyrazol-4-yl)-1H-indazol-5-yl)oxy)ethyl)thi eno[2,3-b]pyridine], for which the IC50 at FGFR3 (setting [1]) is 10 to 100 nM. The same measure, in the same setting: the figure for `Cc1ccc2ncccc2c1C(C)Oc1cc2c(-c3cnn(C)c3)n[nH]c2cn1` (stereo not drawn) [Example 131] is 1 to 10 nM; for `CC(Oc1ccc2[nH]nc(-c3cnn(C)c3)c2c1)c1cc(C(F)(F)F)cc2nccnc12` (stereo not drawn) [Example 137, 5-(1-((3-(1-methyl-1H-pyrazol-4-yl)-1H-indazol-5-yl)oxy)ethyl)-7-(trifluoromethyl)quinoxaline] it is 10 to 100 nM; for `C#Cc1cc(C(C)Oc2ccc3[nH]nc(-c4cnn(C)c4)c3c2)c2nccnc2c1` (stereo not drawn) [Example 146, 7-ethynyl-5-(1-((3-(1-methyl-1H-pyrazol-4-yl)-1H-indazol-5-yl)oxy)ethyl)quinoxa line] it is 1 to 10 nM. Take `CC(Oc1ccc2[nH]nc(-c3cnn(C)c3)c2c1)c1cc(N(C)C)cc2ncccc12` (stereo not drawn) [Example 151]: at FGFR3 (setting [1]), the IC50 lay within 10 to 100 nM. Regarding `CC(Oc1ccc2[nH]nc(-c3ccc(S(C)(=N)=O)nc3)c2c1)c1cccc2nccnc12` (stereo not drawn) [Example 152, imino(methyl)(5-(5-(1-(quinoxalin-5-yl)ethoxy)-1H-indazol-3-yl)pyridin-2-yl)-sulfanone], the IC50 on FGFR3 (setting [1]) lay within 1 to 10 nM. The same measure, in the same setting: to `CC(Oc1ccc2[nH]nc(-c3ccc(N4CCS(=N)(=O)CC4)nc3)c2c1)c1cccc2nccnc12` (stereo not drawn) [Example 153] belongs less than 1 nM; to `CC(Oc1ccc2[nH]nc(-c3cnn(C4CCS(=N)(=O)CC4)c3)c2c1)c1cccc2nccnc12` (stereo not drawn) [Example 154, 1-imino-4-(4-(5-(1-(quinoxalin-5-yl)ethoxy)-1H-indazol-3-yl)-1H-pyrazol-1-yl)hexahydro-thiopyran 1-oxide], 1 to 10 nM; to `CC(Oc1ccc2[nH]nc(-c3cnn(C)c3)c2c1)c1cc(C2CC2)cc2ncccc12` (stereo not drawn) [Example 164, 7-cyclopropyl-5-(1-((3-(1-methyl-1H-pyrazol-4-yl)-1H-indazol-5-yl)oxy)ethyl)qui noline], 1 to 10 nM.

For `Cc1ccc2ncccc2c1C(C)Oc1ccc2[nH]nc(-c3cn(C)nn3)c2c1` (stereo not drawn) [Example 165, 6-methyl-5-(1-((3-(1-methyl-1H-1,2,3-triazol-4-yl)-1H-indazol-5-yl)oxy)ethyl)qui noline], the IC50 on FGFR3 (setting [1]) is 10 to 100 nM.

Take `C#Cc1ccc2ncccc2c1C(C)Oc1ccc2[nH]nc(-c3cnn(C)c3)c2c1` (stereo not drawn) [Example 166, 6-ethynyl-5-(1-((3-(1-methyl-lH-pyrazol-4-yl)-1H-indazol-5-yl)oxy)ethyl)quinoline]: the half-inhibitory concentration (IC50) on FGFR3 lay in the range of 10 to 100 nM. For `CC(Oc1ccc2[nH]nc(-c3cnn(C)c3)c2c1)c1c(Cl)ccc2ncccc12` (stereo not drawn) [Example 167, 6-chloro-5-(1-((3-(1-methyl-1H-pyrazol-4-yl)-1H-indazol-5-yl)oxy)ethyl)qu inoline], the IC50 on FGFR3 (setting [1]) is 10 to 100 nM. As for `CC(Oc1ccc2[nH]nc(-c3cnn(C)c3)c2c1)c1c(C(F)(F)F)ccc2ncccc12` (stereo not drawn) [Example 172, 5-(1-((3-(1-methyl-1H-pyrazol-4-yl)-1H-indazol-5-yl)oxy)ethyl)-6-(trifluoromethyl)quinoline], the IC50 at FGFR3 (setting [1]) fell in the range of 10 to 100 nM.

`COc1cc(OC(C)c2nc(C)cc3nccnc23)cc2c(-c3cnn(C)c3)n[nH]c12` (stereo not drawn) [Example 231, 5-(1-((7-methoxy-3-(1-methyl-1H-pyrazol-4-yl)-1H-indazol-5-yl)oxy)ethyl)-7-methylpyrido[3,4-b]pyrazine]: the IC50 on FGFR3 (setting [1]) was in the range of 1 to 10 nM. `CC(Oc1ccc2[nH]nc(-c3cnn(C)c3)c2c1)c1nc(C#N)cc2nccnc12` (stereo not drawn) [Example 235, 5-(1-((3-(1-methyl-1H-pyrazol-4-yl)-1H-indazol-5-yl)oxy)ethyl)pyridino[3,4-b]pyr azine-7-carbonitrile]: the IC50 on FGFR3 (setting [1]) was 10 to 100 nM.
